{"source": "patent US11446408B2", "about": "“Composition and methods for antimicrobial articles” (priority 2011, dated 2022)", "origin": "cited, not measured here", "conditions_in_all_cases": "10 minutes at 25 degrees Celsius", "key": {"[1]": {"test_system": "enteric bacteria"}, "[2]": {"test_system": "amoebic cysts"}, "[3]": {"test_system": "enteric viruses"}}, "data": [{"smiles": "II", "note": "[iodine]", "values": [{"measurement": "iodine sufficient to kill enteric bacteria", "setting": "[1]", "value": 0.2, "unit": "PPM"}, {"measurement": "iodine sufficient to kill amoebic cysts", "setting": "[2]", "value": 3.5, "unit": "PPM"}, {"measurement": "iodine sufficient to kill enteric viruses", "setting": "[3]", "value": 14.6, "unit": "PPM"}]}]}
